Experimental data taken from patent US12668573B2, “Linker, antibody-drug conjugate including same and use thereof” (Zhejiang Yangshengtang Institute of Natural Medication Co., …, priority 2018, dated 2026).
Square brackets hold non-standard residues; d marks the D form. Peptide text beside a SMILES is read from it. * marks the point of attachment. Dolaproine = CO[C@@H]([C@@H]1CCCN1)[C@@H](C)C(=O)O; Dil = CC[C@H](C)[C@H](NC)[C@@H](CC(=O)O)OC; X1 = C[C@@H](N*)[C@@H](O)c1ccccc1; NMeV = CN[C@H](C(=O)O)C(C)C

How the values were obtained:
[1] = Stability of small molecule-linker conjugates in presence of excess free sulfhydryl (Cys), RP-HPLC; format: physicochemical; conditions: PBS with Cys 0.41 mg/mL, pH=7.4, 37° C., 7 days; peak area at t=0 defined as 100%
Protocol: In this example, the small molecule conjugates containing methyl maleate linker (Conjugate-1, Conjugate-2 and Conjugate-3, prepared in Example 9) and small molecule conjugates containing succinimide linker (Conjugate-1′, Conjugate-2′ and Conjugate-3′, prepared in Example 9) were evaluated to determine their stability situations in the presence of excess free sulfhydryl (Cys), in which the monitoring indicators were the changes of the remaining amounts of the small molecule conjugates containing two different linkers in the solution over time. The substances to be tested were each dissolved in DMSO, diluted with 10 times volume of PBS buffer containing cysteine (in which the concentration of Cys was 0.41 mg/mL, pH=7.4) and incubated in a 37° C. incubator; at t=0, another 200 μL of each sample was taken and stored at −80° C. as control. After each solution was incubated for 7 days, samples were taken separately, and RP-HPLC was used to detect the changes of their remaining amounts of substrate over time, in which the peak area of substrate at t=0 was defined as 100%.

[2] = tested on: BT-474; assay: In vitro cytotoxicity test (CellTiter Glo, 96 h); format: cell-based, human; conditions: BT-474, HER2-positive breast cancer; ADC DAR about 4
Protocol: (§1) The selected cell lines included antigen HER2-positive breast cancer cell lines BT-474 and HCC1954, antigen HER2-positive ovarian cancer cell line SK-OV-3, antigen HER2-positive gastric cancer cell line NCI-N87, and antigen HER2-weakly positive breast cancer cell line MCF-7, and antigen HER2-negative breast cancer cell line MDA-MB-468 (purchased from ATCC).
a) Vial was gently shaken in a 37° C. water bath to be thawed; b) after all the contents had been thawed, the vial was taken out from the water bath, and disinfected by immersion in or spraying with 70% ethanol; c) the contents of the vial was transferred into a centrifuge tube containing 9 mL of complete medium (DMEM medium was used for cell lines BT-474 and MCF-7; RPMI1640 medium was used for cell lines NCI-N87, HCC1954 and MDA-MB-468; and Mccoy's 5A medium was used for cell line SK-OV-3; the media described below were the same as here), and centrifuged at about 200 xg for 5 minutes; d) the cell pellet was re-suspended in a medium and distributed into a 75 cm^2 culture flask; e) the resulting culture was incubated in a 37° C., 5% CO2 incubator. […]

[3] = tested on: SK-OV-3; assay: In vitro cytotoxicity test (CellTiter Glo, 96 h); format: cell-based; conditions: Sk-OV-3, HER2-positive ovarian cancer; ADC DAR about 4
Protocol: as §1
(§2) a) Vial was gently shaken in a 37° C. water bath to be thawed; b) after all the contents had been thawed, the vial was taken out from the water bath, and disinfected by immersion in or spraying with 70% ethanol; c) the contents of the vial was transferred into a centrifuge tube containing 9 mL of complete medium (DMEM medium was used for cell lines BT-474 and MCF-7; RPMI1640 medium was used for cell lines NCI-N87, HCC1954 and MDA-MB-468; and Mccoy's 5A medium was used for cell line SK-OV-3; the media described below were the same as here), and centrifuged at about 200 xg for 5 minutes; d) the cell pellet was re-suspended in a medium and distributed into a 75 cm^2 culture flask; e) the resulting culture was incubated in a 37° C., 5% CO2 incubator.
(§3) a) The cells were passaged three times a week at a ratio of 1:4 in a medium containing 10% FBS (heat inactivated) and 1% penicillin/streptomycin solution; b) for the passaged cells, the adherent cells were firstly washed with 0.05% trypsin/EDTA solution (3 mL), then trypsin/EDTA (3 mL) was added and vortexed to coat the cells evenly. The resulting culture was incubated at 37° C. until the cells were detached (observed with microscope to verify that the cells were detached). An equal volume of cell culture medium was added to inactivate trypsin, the detached cells were collected, and centrifuged at 200×g for 5 minutes and then re-suspended in fresh culture medium.

[4] = tested on: NCI-N87; assay: In vitro cytotoxicity test (CellTiter Glo, 96 h); format: cell-based; conditions: NCI-N87, HER2-positive gastric cancer; ADC DAR about 4
Protocol: as §1, §2, §3

[5] = tested on: HCC1954; assay: In vitro cytotoxicity test (CellTiter Glo, 96 h); format: cell-based; conditions: HCC1954, HER2-positive breast cancer; ADC DAR about 4
Protocol: as §1, §2, §3

[6] = tested on: MDA-MB-468; assay: In vitro cytotoxicity test (CellTiter Glo, 96 h); format: cell-based; conditions: MDA-MB-468, HER2-negative breast cancer; ADC DAR about 4
Protocol: as §1, §2, §3

[7] = tested on: MCF-7; assay: In vitro cytotoxicity test (CellTiter Glo, 96 h); format: cell-based; conditions: MCF-7, HER2-weakly positive breast cancer; ADC DAR about 4
Protocol: as §1, §2, §3

Remaining amount [1] [%] | SMILES | other results
98 | COC(=O)CC(SCCO)C(=O)NCCCCCC(=O)Nc1ccccc1 (stereo not drawn) [Conjugate-2] | 
53 | CC(=O)N[C@@H](CSC1CC(=O)N(CCCCCC(=O)Nc2ccccc2)C1=O)C(=O)NCc1ccccc1 (stereo partly drawn) [Conjugate-1′] | 
61 | O=C(CCCCCN1C(=O)CC(SCCO)C1=O)Nc1ccccc1 (stereo not drawn) [Conjugate-2′] | 
 | CC[C@H](C)[C@@H]([C@@H](CC(=O)N1CCC[C@H]1[C@H](OC)[C@@H](C)C(=O)N[C@H](C)[C@@H](O)c1ccccc1)OC)N(C)C(=O)[C@@H](NC(=O)[C@@H](NC)C(C)C)C(C)C [MMAE, Monomethyl-auristatin E] (H-[NMeV]V[Dil][Dolaproine]-X1) | IC50 [2]: 0.299 nM; IC50 [3]: 0.644 nM; IC50 [4]: 0.161 nM; IC50 [5]: 0.116 nM; IC50 [6]: 0.0669 nM; IC50 [7]: 0.223 nM
96 | COC(=O)CC(SC[C@H](NC(C)=O)C(=O)NCc1ccccc1)C(=O)NCCCCCC(=O)Nc1ccccc1 (stereo partly drawn) [Conjugate-1] | 

SMILES | Remaining amount [1] [%] | other results
COC(=O)CC(SCc1ccccc1)C(=O)NCCCCCC(=O)Nc1ccccc1 (stereo not drawn) [Conjugate-3] | 93 | 
O=C(CCCCCN1C(=O)CC(SCc2ccccc2)C1=O)Nc1ccccc1 (stereo not drawn) [Conjugate-3′] | 49 | 
